# Patent publication EP0332387B1, “Triazole derivatives, their preparation and their use as fungicides” (Sankyo Company Limited, priority 1988, dated 1989)
# Key:
# Assay type in all cases: in vivo
# Rhizoctonia solani [1] = assay: Preventive activity against sheath blight of rice plants (Experiment 2); set-up: key: 0 = disease as untreated, 5 = no disease (complete control); conditions: rice seedlings (variety Nihonbare), sprayed at 100 ppm (30 ml/3 pots) 24 hours before inoculation, 5 days; height of the lesions
# Method: Rice seedlings (variety Nihonbare) at the 4 - 5 leaf stage were sprayed with an aqueous suspension of the test compound at a concentration of 100 ppm (30 ml/3 pots). The seedlings were then kept for 24 hours at room temperature, after which they were inoculated with the fungus, Rhizoctonia solani, by placing 4 - 5 oat grains on which the fungus had previously been cultured around the base of each seedling. The seedlings were then kept in a moist chamber for 5 days at 25 - 27 °C. The disease controlling index was given on the basis of the height of the lesions formed on the rice seedlings.
# Except in Table 12G, the compounds tested have the formula (1-1), in which Ar represents the group shown at the beginning of each part of the Table and R^1, R^2, X and Y are as defined in the Table.
# (§1) The disease controlling index shown in the foregoing Tables 11 to 19 is indicated by the following codes: • 5--no disease (complete control) • 4--disease rate is less than 10% of the untreated plant • 3--disease rate is 10% - 30% of the untreated plant • 2--disease rate is 30% - 50% of the untreated plant • 1--disease rate is 50% - 70% of the untreated plant • 0--disease rate is almost same as the untreated plant.
# Rhizoctonia solani [2] = assay: Preventive activity against sheath blight of rice plants by submerged application (Experiment 4); conditions: rice seedlings (variety Nihonbare), applied to the water in the pots, 100 g per 10 ares, inoculated after 7 days, 5 days; height of the lesions
# Excerpt: Rice seedlings (variety Nihonbare) at the 4 - 5 leaf stage grown in pots were flooded to a depth of 1 cm with water. The test compound was then applied to the water in the pots in an amount corresponding to 100 g per 10 ares. After keeping the seedlings in a greenhouse for 7 days, the water was drained from the pots and the seedlings were inoculated with the fungus, Rhizoctonia solani, by placing 4 - 5 oat grains on which the fungus had previously been cultured around the base of each seedling. The seedlings were then kept in a moist chamber for 5 days at 25 - 27 °C. The disease controlling index was given on the basis of the height of the lesions formed on the rice seedlings.
# Except for Table 14F, the compounds tested have the formula (1-1), in which Ar represents the group shown at the beginning of each part of the Table and R^1, R^2, X and Y are as defined in the Table.
# as §1
# Puccinia recondita = assay: Curative activity against leaf rust of wheat (Experiment 6); conditions: wheat seedlings (variety Norin No 61), sprayed after inoculation at 3 ppm (30 ml/3 pots), 10 days; diseased area on the first leaf
# Method: Wheat seedlings (variety Norin No 61) at the first leaf stage were inoculated with the fungus, Puccinia recondita, by spraying them with a spore suspension of the fungus. They were then kept in a moist chamber for 24 hours at 20 - 22 °C, after which they were moved to a greenhouse at 15 - 20 °C. […] The seedlings were then continuously kept in the greenhouse for 10 days. The disease controlling index was given on the basis of diseased area on the first leaf.
# [3] = test system: Erysiphe graminis f.sp. hordei; assay: Curative activity against powdery mildew of barley (Experiment 7); conditions: barley seedlings (variety Sekishinriki), sprayed one day after inoculation at 3 ppm (30 ml/3 pots), further 10 days; diseased area on the first leaf
# Method: Barley seedlings (variety […]) at the first leaf stage were inoculated with conidia of Erysiphe graminis f.sp. hordei and kept in a greenhouse at 15 - 20°C. After one day, the seedlings were sprayed with an aqueous suspension of the test compound at a concentration of 3 ppm (30 ml/3 pots), and they continued to be kept in the greenhouse at that temperature for a further 10 days. The disease controlling index was given on the basis of the diseased area on the first leaf.
# Sphaerotheca fuliginea = assay: Preventive activity against powdery mildew of cucumber (Experiment 8); conditions: cucumber seedlings sprayed at 300 ppm, inoculated after 24 hours, evaluated after 7 days in greenhouse; diseased area on third and fourth leaves
# Method: Cucumber seedlings (variety Sagamihanpaku) at the 3 - 4 leaf stage were sprayed with an aqueous suspension of the test compound at a concentration of 300 ppm (30 ml/3 pots). The seedlings were then kept for 24 hours at room temperature, after which they were inoculated with conidida of Sphaerotheca fuliginea. After keeping the seedlings in a greenhouse for 7 days, the disease controlling index was evaluated on the basis of the diseased area on the third and fourth leaves.
# Venturia inaequalis = assay: Preventive activity against apple scab (Experiment 9); conditions: apple seedlings sprayed at 300 ppm, inoculated after 24 hours, 3 days moist chamber then 10 days greenhouse; diseased area on third and fourth leaves
# Method: Apple seedlings at the 3 - 4 leaf stage were sprayed with an aqueous suspension of the test compound at a concentration of 300 ppm (30 ml/3 pots). The seedlings were then kept for 24 hours at room temperature, after which they were inoculated with the fungus, Venturia inaequalis, by spraying a spore suspension of the fungus over the seedlings. After inoculation, the seedlings were kept in a moist chamber for 3 days at 20 - 22 °C and then moved to a greenhouse at 20 - 22°C for 10 days. The disease controlling index was given on the basis of the diseased area on the third and fourth leaves.
# Candida albicans = assay: ED50 in mice infected with Candida albicans, oral treatment (Experiment 11); conditions: treated orally
# Method: Groups of mice (each group contained 10 mice) were inoculated with 7 to 9 x 10^6 spores per mouse of Candida albicans. 1, 4, and 24 hours after the inoculation, each mouse was orally administered 20 mg/kg of the test compound each time. The anti-fungal activity was assessed by the survival rate 9 days after infection. The survival rate was recorded as 0% 2 days after infection in an untreated (control) group. […] Following essentially the same procedure as that described in Experiment 10, mice were infected with Candida albicans, and treated orally with various compounds of the invention, as shown in the following Table 21. Fifteen days after infection (or fourteen days in the case of the compounds of Example Nos. 5 and 10), ED50 values were determined and are reported in the following Table 21.
# Rhizoctonia solani [4] = assay: Curative activity against sheath blight of rice plants (Experiment 3); set-up: key: 0 = disease as untreated, 5 = no disease (complete control); conditions: rice seedlings (variety Nihonbare), sprayed 24 hours after inoculation at 10 ppm (30 ml/3 pots), further 5 days; height of the lesions
# Method: Rice seedlings (variety Nihonbare) at the 4 - 5 leaf stage were inoculated with the fungus, Rhizoctonia solani, by placing 4 - 5 oat grains on which the fungus had previously been cultured around the base of each rice seedling and keeping them in a moist chamber at 25 - 27 °C. After 24 hours, the rice seedlings were sprayed with an aqueous suspension of the test compound at a concentration of 10 ppm (30 ml/3 pots) and they then continued to be kept in the moist chamber for a further 5 days. The disease controlling index was given on the basis of the height of the lesions formed on the rice seedlings.
# (§2) The compounds tested have the formula (1-1), in which Ar represents the group shown at the beginning of each part of the Table and R^1, R^2, X and Y are as defined in the Table.
# as §1
# Gibberella Fujikuroi = assay: Activity against bakanae disease of rice plants by seed soaking (Experiment 5); set-up: key: 0 = disease as untreated, 5 = no disease (complete control); conditions: infected rice seeds (variety Tanginbozu) immersed 3 days in aqueous suspension (concentration not given), 3 weeks; number of diseased seedlings
# Method: Ten grams of rice seeds (variety Tanginbozu), infected with Gibberella Fujikuroi, were immersed in 20 ml of an aqueous suspension of the test compound for 3 days. At the end of this time, the treated seeds were densely sown in soil in pots, and the pots were placed in a greenhouse at 20 - 30 °C for 3 weeks. The disease controlling index was given on the basis of the number of diseased seedlings.
# as §2, §1
# Pyricularia oryzae = conditions: rice seedlings (variety Sachikaze), sprayed 24 hours after inoculation at 10 ppm (30 ml/3 pots), further 6 days; number of lesions on the upper two leaves
# [5] = 336 h, fourteen days after infection (Example Nos. 5 and 10)
# [6] = 360 h, fifteen days after infection
Compound,disease controlling index (Rhizoctonia solani [1]),disease controlling index (Rhizoctonia solani [2]),disease controlling index (Puccinia recondita),disease controlling index [3],Index (disease controlling index) (Sphaerotheca fuliginea),Index (disease controlling index) (Venturia inaequalis),ED50 (Candida albicans; [5]),ED50 (Candida albicans; [6]),disease controlling index (Rhizoctonia solani [4]),disease controlling index (Gibberella Fujikuroi),disease controlling index (Pyricularia oryzae)
"C[C@@H](NC(=O)c1ccc(Cl)cc1)[C@](O)(Cn1cncn1)c1ccc(Cl)cc1Cl (relative stereo) [Example 5, (2R*, 3R*)-3-(4-Chlorobenzoylamino)-2-(2,4-dichlorophenyl)-1-(1H-1,2,4-triazol-1-yl)-2-butanol]",5,4 (disease rate is less than 10% of the untreated plant),5,5,5,5,7.07 mg/kg,–,–,–,–
"C[C@@H](SC(=O)c1ccc(C(F)(F)F)cc1)[C@](O)(Cn1cncn1)c1ccc(Cl)cc1Cl (relative stereo) [Example 46, (2R*, 3R*)-2-(2,4-Dichlorophenyl)-1-(1H-1 ,2,4-triazol-1-yl)-3-[4-(trifluoromethyl)benzoylthio]-2-butanol]",–,–,–,–,5,5,–,0.73 mg/kg,–,–,–
"C[C@@H](N(C)C(=O)c1ccc(C(F)(F)F)cc1)[C@](O)(Cn1cncn1)c1ccc(F)cc1F (relative stereo) [Example 59, (2R^*, 3R*)-2-(2,4-Difluorophenyl)-3-{N-methyl-N-[4-(trifluoromethyl)benzoyl]amino}-1-(1H-1,2,4-triazol-1-yl)-2-butanol]",5,4 (disease rate is less than 10% of the untreated plant),–,–,5,5,–,0.66 mg/kg,5,4 (disease rate is less than 10% of the untreated plant),–
"C[C@@H](NC(=O)c1ccc(Cl)cc1)[C@](O)(Cn1cncn1)c1ccc(Cl)cc1Cl [Example 10, (2R, 3R)-3-(4-Chlorobenzoylamino)-2-(2,4-dichlorophenyl)-1-(1H-1,2,4-triazol-1-yl)-2-butanol]",5,–,–,–,5,5,< 2.5 mg/kg,–,5,5,4 (disease rate is less than 10% of the untreated plant)
